Assays:
[1] = test system: primary rat midbrain neurons; experiment: 6-OHDA-induced neurotoxicity in primary midbrain neurons, MTT and Hoechst 33342/PI staining; assay type: cell-based; settings: 6-OHDA with or without PACA, MTT
Keap1 = molecular target: T1, Keap1 (Rattus norvegicus, UniProt P57790); experiment: Identification of PACA-modified proteins by Click chemistry biotin tagging and affinity isolation; assay type: cell-based; settings: 20 μM PACA, biotin tag by Click chemistry, Keap1 antibody pull-down
T1 construct: endogenous in cells; host or cells: PC12 (rat pheochromocytoma) cells
T1 sequence (P57790 whole entry): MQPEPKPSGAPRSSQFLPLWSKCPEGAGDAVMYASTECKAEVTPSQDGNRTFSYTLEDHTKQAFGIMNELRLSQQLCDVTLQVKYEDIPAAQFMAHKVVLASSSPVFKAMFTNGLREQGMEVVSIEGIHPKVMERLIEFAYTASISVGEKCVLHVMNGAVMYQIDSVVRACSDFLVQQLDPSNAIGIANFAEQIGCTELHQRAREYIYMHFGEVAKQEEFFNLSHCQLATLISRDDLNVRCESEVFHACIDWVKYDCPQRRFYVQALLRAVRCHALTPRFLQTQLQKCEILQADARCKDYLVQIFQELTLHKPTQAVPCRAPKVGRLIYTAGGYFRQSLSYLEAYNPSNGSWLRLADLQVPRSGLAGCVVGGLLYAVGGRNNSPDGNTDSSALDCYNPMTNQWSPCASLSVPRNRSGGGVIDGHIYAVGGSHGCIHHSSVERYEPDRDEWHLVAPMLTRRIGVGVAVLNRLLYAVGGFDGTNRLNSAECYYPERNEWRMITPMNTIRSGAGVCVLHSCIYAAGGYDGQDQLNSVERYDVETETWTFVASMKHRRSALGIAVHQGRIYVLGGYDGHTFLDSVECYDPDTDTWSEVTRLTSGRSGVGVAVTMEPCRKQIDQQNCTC
Protocol: PACA directly modifies the proteins bearing free cysteine residues after oxidase-mediated oxidation into chemically reactive o-quinone. At the end of 24 hour incubation, a biotin tag was introduced to the proteins that were covalently modified by PACA. Following affinity isolation with anti-Keap1 antibody bead, streptavidin-horseradish peroxidase (HRP) detected Keap1 as the predominant PACA-modified protein with the apparent molecular size of ˜72 kDa. (A) Biotinylation of PACA-modified proteins by Click chemistry. Oxidase represents the enzymes that oxidize PACA to o-quinone, Protein-SH represents the protein bearing free cysteine residues. (B) Procedure for the isolation of PACA-modified proteins. (C) Western blotting analysis of PACA-modified proteins. PC12 cells were treated with PACA (20 μM) for 6 h. […] All protein fractions were resolved by SDS-PAGE and detected by streptavidin-HRP conjugate. […]
PACA is converted to the chemically reactive o-quinone intermediate by the intracellular oxidases after PACA got inside the cells. […] Following gel electrophoresis and Western blotting onto PVDF (polyvinylidene difluoride) membranes, HRP-streptavidin conjugate detected a predominant ˜70 kDa protein band (data not shown). Such protein band was also detected by keap1 antibody through a similar procedure. […] The blots were probed by HRP-conjugated streptavidin, and subsequently detected by chemiluminescence. […]

PC12 cells [2] = experiment: 6-OHDA-induced superoxide production, DHE staining; assay type: cell-based, rat; settings: 6-OHDA with PACA 5, 10, 20 and 50 μM
Protocol: (§1) After the treatment with 6-OHDA alone or in combination with PACA at different concentrations, PC12 cells were stained with a fluorescent probe dihydroethidium (DHE) for the production of superoxide anion (A & B) and another fluorescent probe DAF-FM Diacetate for the production of nitric oxide ([…]), respectively. (A) Representative images of DHE-stained cells. 6-OHDA, 200 μM; PACA, 50 (B) PACA inhibited 6-OHDA-induced formation of superoxide ions. PC12 cells were treated with 6-OHDA alone or in combination with PACA for 6 h and subsequently stained with a probe DHE. The images were captured under a fluorescence microscope. The fluorescence was determined by ImageJ software. (C) Representative images of DAF-FM DA-stained cells. 6-OHDA, 200 μM; PACA, 50 μM. (D) PACA inhibited 6-OHDA-induced NO production. PC12 cells were treated with 6-OHDA alone or in combination with PACA for 6 h and subsequently stained with a probe DAF-FM DA. The images were captured under a fluorescence microscope. The fluorescence was determined by ImageJ software.
(§2) PC12 cells were treated with 6-OHDA alone or in combination with PACA at the concentrations of 5, 10, 20 and 50 μM. At the end of treatment, PC12 cells were then stained with a fluorescent probe dihydroethidium (DHE) for the production of superoxide anion and another fluorescent probe DAF-FM Diacetate for the production of nitric oxide, respectively.

PC12 cells [3] = experiment: 6-OHDA-induced nitric oxide production, DAF-FM Diacetate staining; assay type: cell-based, rat; settings: 6-OHDA with PACA 5, 10, 20 and 50 μM
Protocol: as §1, §2

SMILES: C#CCNC(=O)/C=C/c1ccc(O)c(O)c1 [PACA, (E)-3-(3,4-dihydroxyphenyl)-N-(prop-2-yn-1-yl)acrylamide]
- 6-OHDA neurotoxicity in primary rat midbrain neurons [1]: attenuated 6-hydroxydopamine (6-OHDA) neurotoxicity
- PACA-modified protein isolated from treated PC12 cells (Keap1): kelch-like ECH-associated protein 1 (Keap1) was isolated as the predominant protein
- 6-OHDA-induced formation of superoxide ions (PC12 cells [2]): significantly attenuated
- 6-OHDA-induced formation of NO (PC12 cells [3]): significantly attenuated

Source: US10259777B2, “(E)-3-(3,4-dihydroxyphenyl)-N-(prop-2-yn-1-yl)acrylamide for treatment of neurodegenerative diseases” (THE UNIVERSITY OF HONG KONG, priority 2015, dated 2019)
